The values below are quoted from earlier work in US20180369136A1, “DEVICES AND METHODS FOR TRANSDERMAL TREATMENT OF BASAL CELL CARCINOMA” (NORTH CAROLINA STATE UNIVERSITY, priority 2015, published 2018).

The subject of one data set is yeast and bacteria cells. The settings on record: in vitro.
Data set [1] concerns immunosuppressed syngeneic mice. The settings on record: in vivo.
The subject of data set [2] is basal cell carcinoma tumor. The settings on record: oral itraconazole.
Data set [3] relates to Hedgehog signaling in basal cell carcinoma. The settings on record: basal cell carcinoma in vitro model.

As to `O=c1[nH]cc(F)c(=O)[nH]1` [fluorouracil, 5-fluorouracil], the mutagenicity entry with yeast and bacteria cells is reported as “causes mutations”; in data set [1], “causes mutations”.

On to `CCC(C)n1ncn(-c2ccc(N3CCN(c4ccc(OCC5COC(Cn6cncn6)(c6ccc(Cl)cc6Cl)O5)cc4)CC3)cc2)c1=O` (stereo not drawn) [itraconazole], for which the side effects entry in data set [2] was “grade 4 congestive heart failure”. Under “ethanol and water”, the “solubility in ethanol and water” value is recorded as “poor solubility”.

With `C=C1CC[C@H](O)C/C1=C/C=C1\CCC[C@]2(C)[C@@H]([C@H](C)CCCC(C)C)CC[C@@H]12` [vitamin D3], in data set [3], the Hedgehog signaling entry was “suppress Hedgehog signaling”. Further, the “solubility in aqueous media” value (aqueous media) is given as “does not readily dissolve”.
